Results taken from patent US20030050247A1, “Chemically-modified peptides, compositions, and methods of production and use” (priority 2000, published 2003).
Converted amounts (≈) assume the structure as drawn. Like-named read-outs stand apart in the source and are kept apart here. The star is where a group is joined. Octanoyl = CCCCCCCC(=O)*

What was measured:
E. coli = assay: Antimicrobial activity of peptide-containing fiber (textiles); details: Example 17
[1] = system: K. pneumoniae and P. aeruginosa; assay: Antimicrobial assay (MIC, growth inhibited by >90%), Examples 2 and 3; details: for efficacy (in words): Example 3, second octyl group, compared to the -NH2 peptides, Trp replaced
Aeromonas = details: 18 h
E. cloacae = assay: Antimicrobial assay, bacterial paper mill isolates; assay type: cell-based, Enterobacter cloacae; details: paper mill isolate; TGE medium; 30° C.
[2] = system: Desulfovibrio desulfuricans (ATCC 7757)
C. acidivorans = assay: Antimicrobial assay, bacterial paper mill isolates; assay type: cell-based, Comamonas acidivorans; details: paper mill isolate; TGE medium; 30° C.
P. aeruginosa = assay: Antimicrobial assay, bacterial paper mill isolates; assay type: cell-based, Pseudomonas aeruginosa; details: paper mill isolate; TGE medium; 30° C.
Bacillus = assay: Antimicrobial assay, bacterial cooling tower isolates; assay type: cell-based; details: cooling tower isolate; TGE; 18 hr at 35° C.
X. maltophila = assay: Antimicrobial assay, bacterial paper mill isolates; assay type: cell-based, Xanthomonas maltophila; details: paper mill isolate; TGE medium; 37° C.
[3] = system: Salmonella typhimurium and Clostridium botulinum; assay type: cell-based; details: food preservative; Example 16
[4] = system: Aspergillus niger (ATCC 16888); details: 22 h at 30° C.
in vitro = details: Vero cells (ATCC CCL81), non-infected

Decanoyl-Arg-NH-decyl
MIC (E. coli): ≦ 15 μg/ml

Octanoyl-Arg-Phe-Phe-Arg-NH-octyl (RFFR; HELM PEPTIDE1{[CCCCCCCC(=O)[*:2]].R.F.F.R.[CCCCCCCCN[*:1]]}$$$$V2.0; SMILES CCCCCCCCNC(=O)[C@H](CCCNC(=N)N)NC(=O)[C@H](Cc1ccccc1)NC(=O)[C@H](Cc1ccccc1)NC(=O)[C@H](CCCNC(=N)N)NC(=O)CCCCCCC)
MIC (E. coli): ≦ 4 μg/ml

Octanoyl-Arg-Tyr-NH-octyl
efficacy (in words) [1]: enhanced efficacy

CCCCCCCCNC(=O)[C@H](CCCNC(=N)N)NC(=O)CCCCCCC [Octanoyl-R-NH-octyl, Octanoyl-Arg-NH-octyl]
MIC (Aeromonas): 62.5 µg/mL (≈ 152 µM)
MIC (E. cloacae): >313 µg/mL
MIC [2]: 62.5 to 125 µg/mL
MIC (C. acidivorans): >313 µg/mL
MIC (P. aeruginosa): ≦10 μg/ml
MIC (Bacillus): 15.6 µg/mL (≈ 37.9 µM)
MIC (X. maltophila): ≦5 μg/ml

Octanoyl-Arg-Phe-NH-octyl
MIC [3]: ≦ 8 μg/ml
efficacy (in words) [1]: enhanced efficacy

Nonanoyl-Arg-Arg-NH-nonyl
MIC (E. coli): ≦ 2 μg/ml

Octanoyl-Arg-Ala-NH-octyl
MIC [3]: ≦ 15 μg/ml

Octanoyl-Arg-Trp-NH2
MIC [3]: ≦ 15 μg/ml
MIC (E. coli): ≦ 15 μg/ml
peptide efficacy (MIC values, in words) ([1]; Example 2, acyl chain length and amino acid composition): greatest activity

CCCCCCCCCNC(=O)[C@H](CCCNC(=N)N)NC(=O)CCCCCCCC [Nonanoyl-Arg-NH-nonyl]
Growth was inhibited ([4]; 1 μg/ml of peptide): 43%
Growth was inhibited ([4]; 7.8 μg/ml): 83%
Growth was inhibited ([4]; concentrations as low as 15.6 μg/ml): 98%
MIC [3]: ≦ 4 μg/ml

Octanoyl-Arg-Trp-Phe-NH2
MIC [3]: ≦ 15 μg/ml
MIC (E. coli): ≦ 15 μg/ml

CCCCCCCCNC(=O)[C@H](CCCNC(=N)N)NC(=O)[C@H](CCCNC(=N)N)NC(=O)CCCCCCC [Octanoyl-Arg-Arg-NH-octyl]
viability at 125 ppm (in vitro): 59%

Octanoyl-Arg-Arg-Arg-NH-octyl
MIC (E. coli): ≦ 8 μg/ml

Octanoyl-Lys-Arg-NH-octyl
MIC [3]: ≦ 4 μg/ml

Octanoyl-Arg-Cys-NH-octyl
MIC [3]: ≦ 15 μg/ml
